# Source: patent US20260258425A1, “MALT1 TUMOR INHIBITOR, PHARMACEUTICAL COMPOSITION CONTAINING THE SAME, AND APPLICATIONS THEREOF” (XZYP (BEIJING) BIOTECH CO., LTD, priority 2023, published 2026)
# Entries after “also recorded” stand apart in the source; their conditions may differ.
# Legend:
# MALT1 = assay: Western blot of MALT1 expression in E0771 cells after ASO transfection with Lipofectamine 3000; assay type: cell-based, mouse; details: ASO final concentration 50 nM, 5 μL Lipofectamine 3000, 48 hours after transfection, listed as D
# Source text: S1. Considering the specificity between the antisense nucleic acid and the target nucleic acid and the hairpin-like structure that may be formed by the base complementarity within the nucleotide sequence of the antisense nucleic acid, the nucleotide sequence of the antisense nucleic acid needs to target the amino acid residues at positions 81 and/or 82 of the death domain (DD) of MALT1; S2. Considering the stability of hybridization and the membrane permeability of the antisense oligonucleotide, select the length of the antisense oligonucleotide, which ranges from 15 to 40 bases; S3. Considering the affinity of the antisense oligonucleotide for the target sequence, since the affinity of GC base pairs is greater than that between AU, increasing the ratio of GC base pairs to AU base pairs in the antisense oligonucleotide can appropriately reduce the length of the antisense oligonucleotide; S4. Set a control, which can be missense or reverse; S5. Use the designed antisense oligonucleotides to inhibit the expression of the same target sequence MALT-1 mRNA, and screen the antisense oligonucleotide with the best inhibitory effect. The specific steps for screening the antisense oligonucleotide with the best inhibitory effect are as follows: • a. […] 2×10^5 E0771 cells into each well of a 12-well plate and incubate overnight; • b. On the day after operation a, transfect the corresponding ASO drug with 5 μL of Lipofectamine™ 3000 until its final concentration is 50 nM; • c. 6 hours after operation b, replace the serum-free medium with medium containing 10% serum; • d. 24 hours after operation c, replace the serum-free medium again; • e. 48 hours after operation d, harvest the obtained protein and perform Western blot experiment. The Western blot results of antisense oligonucleotides targeting E0771 cells after transfection with Lipofectamine™ 3000 are shown in FIG. 5: in this figure, 48 hours after transfection with Lipofectamine™ 3000, 5 μL of Lipofectamine™ 3000 was added to each well of the 12-well plate.
# [1] = tested on: breast cancer cells (E0771); assay: Verification of ASO prodrug in breast cancer cells E0771 (FIG. 18); assay type: cell-based, mouse
# E0771 cells [2] = assay: E0771 orthotopic breast cancer model, intratumoral ASO, tumor volume; assay type: in vivo, mouse; details: ASO 5 nmol intratumoral twice a week, mean, n=12
# Source text: (§1) Based on the intratumoral experimental data of various mouse breast cancer models and melanoma models (administration started 7 days later, once every 3 days), this example studies the effect comparison between the ASO prodrug (ASO24, whose sequence is shown in SEQ ID No. 2) and PD-1/PD-L1, as well as the effect of their combination.
# (§2) 1×10^5 E0771 cells were orthotopically injected into the fat pad of wild-type mice. Starting from day 7, PD-1 antibody (BioXCell #BE0033, clone J43, the same below) monotherapy, ASO monotherapy, or combined PD-1 antibody and ASO therapy was initiated. For anti-PD-1 antibody monotherapy, intraperitoneal injection was performed once a week at a dose of 3 mg/kg starting 7 days after tumor transplantation, and the control group was injected with DPBS. For MALT1 ASO monotherapy, in vivo-jetPEI®, in vivo DNA transfection kit was used according to the instructions. Intratumoral injection was performed twice a week at a dose of 5 nmol starting 7 days after tumor transplantation, and the control group was injected with solvent or nontarget ASO. Combined therapy will receive the two specified monotherapies. Tumor measurement was started after administration, once every three days. n=12. Data are expressed as mean. Statistical analysis was performed using Two way ANOVA. ** represents p <0.01.
# B16F10 cells = assay: B16F10 subcutaneous melanoma model, intratumoral ASO, tumor volume; assay type: in vivo, mouse; details: mean, n=10
# Source text: as §1, §2
# 1×10^5 B16F10 cells were subcutaneously injected near the subcutaneous tissue of the groin of wild-type mice. Starting from day 7, PD-1 antibody monotherapy, ASO monotherapy, or combined PD-1 antibody and ASO therapy was initiated. n=10. Data are expressed as mean. Statistical analysis was performed using Two way ANOVA. ** represents p<0.01.
# 4T1 cells [3] = assay: 4T1 orthotopic breast cancer model, intratumoral ASO, tumor volume; assay type: in vivo, mouse; details: mean, n=10
# Source text: as §1, §2
# 2×10^5 4T1 cells were orthotopically injected into the fat pad of wild-type mice. Starting from day 7, PD-1 antibody monotherapy, ASO monotherapy, or combined PD-1 antibody and ASO therapy was initiated. n=10. Data are expressed as mean. Statistical analysis was performed using Two way ANOVA. n.s. represents no significant difference. ** represents p <0.01.
# E0771 cells [4] = assay: E0771 breast cancer model, systemic ASO24 (tail vein LNP-ASO), tumor volume; assay type: in vivo, mouse
# Experimental: as §2
# (§3) Study on the Effect Comparison between ASO Prodrug and PD-1/PD-L1 and Their Combined Use Based on Systemic Administration Experimental Data of Various Mouse Breast Cancer Models and Melanoma Models (Administration Started 7 Days Later, Once Every 3 Days).
# (§4) The experimental process is similar to the intratumoral administration of ASO24 in E0771 cells, with the difference that ASO24 is administered via systemic delivery by tail vein injection of LNP-ASO in mice.
# 4T1 cells [5] = assay: 4T1 breast cancer model, systemic ASO24 (tail vein LNP-ASO), tumor volume; assay type: in vivo, mouse
# Experimental: as §3, §4
# [6] = Day 7 (start of administration), ASO24 systemic by tail vein LNP-ASO
# [7] = Day 9, ASO24 systemic by tail vein LNP-ASO, administration from day 7
# [8] = Day 11, ASO24 systemic by tail vein LNP-ASO, administration from day 7
# [9] = Day 13, ASO24 systemic by tail vein LNP-ASO, administration from day 7
# [10] = Day 15, ASO24 systemic by tail vein LNP-ASO, administration from day 7
# [11] = Day 17, ASO24 systemic by tail vein LNP-ASO, administration from day 7
# [12] = Day 19, ASO24 systemic by tail vein LNP-ASO, administration from day 7
sequence,measurement,setting,value
"GAAGTTCATGAGCCTTGGCCC (antisense GAAGUUCAUGAGCCUUGGCCC; called an ASO prodrug, chemistry not given here) [ASO24]",inhibition of MALT1 expression (Western blot band),MALT1,obvious inhibitory results; also recorded: obvious inhibitory effects
same,inhibition of further development of cancer cells,[1],significantly inhibit the further development of cancer cells
same,Tumor volume,"E0771 cells [2]; Day 0, E0771 orthotopic fat pad, wild-type mice, from day 7 anti-PD-1 3 mg/kg i.p. once a week",0 mm^3
same,Tumor volume,"E0771 cells [2]; Day 7 (start of treatment), E0771 orthotopic, anti-PD-1 3 mg/kg i.p. once a week",49 mm^3
same,Tumor volume,"E0771 cells [2]; Day 10, E0771 orthotopic, from day 7 anti-PD-1 3 mg/kg i.p. once a week",36 mm^3
same,Tumor volume,"E0771 cells [2]; Day 13, E0771 orthotopic, from day 7 anti-PD-1 3 mg/kg i.p. once a week",92 mm^3
same,Tumor volume,"E0771 cells [2]; Day 16, E0771 orthotopic, from day 7 anti-PD-1 3 mg/kg i.p. once a week",140 mm^3
same,Tumor volume,"E0771 cells [2]; Day 19, E0771 orthotopic, from day 7 anti-PD-1 3 mg/kg i.p. once a week",306 mm^3
same,Tumor volume,"B16F10 cells; Day 0, B16F10 subcutaneous near groin, wild-type mice, treatment from day 7, ASO intratumoral",0 mm^3
same,Tumor volume,"B16F10 cells; Day 7 (start of treatment), B16F10 subcutaneous, ASO intratumoral",49 mm^3
same,Tumor volume,"B16F10 cells; Day 10, B16F10 subcutaneous, treatment from day 7, ASO intratumoral",26 mm^3
same,Tumor volume,"B16F10 cells; Day 13, B16F10 subcutaneous, treatment from day 7, ASO intratumoral",129 mm^3
same,Tumor volume,"B16F10 cells; Day 16, B16F10 subcutaneous, treatment from day 7, ASO intratumoral",311 mm^3
same,Tumor volume,"4T1 cells [3]; Day 0, 4T1 orthotopic fat pad, wild-type mice, treatment from day 7, ASO intratumoral",0 mm^3
same,Tumor volume,"4T1 cells [3]; Day 7 (start of treatment), 4T1 orthotopic, ASO intratumoral",66 mm^3
same,Tumor volume,"4T1 cells [3]; Day 10, 4T1 orthotopic, treatment from day 7, ASO intratumoral",71 mm^3
same,Tumor volume,"4T1 cells [3]; Day 13, 4T1 orthotopic, treatment from day 7, ASO intratumoral",205 mm^3
same,Tumor volume,"4T1 cells [3]; Day 16, 4T1 orthotopic, treatment from day 7, ASO intratumoral",377 mm^3
same,Tumor volume,"4T1 cells [3]; Day 19, 4T1 orthotopic, treatment from day 7, ASO intratumoral",876 mm^3
same,Tumor volume,"E0771 cells [4]; Day 0, ASO24 systemic by tail vein injection of LNP-ASO, administration from day 7",0 mm^3
same,Tumor volume,E0771 cells [4]; [6],29 mm^3
same,Tumor volume,E0771 cells [4]; [7],51 mm^3
same,Tumor volume,E0771 cells [4]; [8],57 mm^3
same,Tumor volume,E0771 cells [4]; [9],86 mm^3
same,Tumor volume,E0771 cells [4]; [10],195 mm^3
same,Tumor volume,E0771 cells [4]; [11],225 mm^3
same,Tumor volume,E0771 cells [4]; [12],313 mm^3
same,Tumor volume,"4T1 cells [5]; Day 0, ASO24 systemic by tail vein LNP-ASO, administration from day 7",0 mm^3
same,Tumor volume,4T1 cells [5]; [6],44 mm^3
same,Tumor volume,4T1 cells [5]; [7],94 mm^3
same,Tumor volume,4T1 cells [5]; [8],103 mm^3
same,Tumor volume,4T1 cells [5]; [9],136 mm^3
same,Tumor volume,4T1 cells [5]; [10],244 mm^3
same,Tumor volume,4T1 cells [5]; [11],333 mm^3
same,Tumor volume,4T1 cells [5]; [12],510 mm^3
